From US9689040B2, “Selective inhibitors of tumor-initiating cells” (Children's Medical Center Corporation, priority 2011, dated 2017)

Assays:
BPLER cells [1] = assay: Cell viability after drug treatment (CellTiterGlo / Trypan-Blue); assay type: cell-based, human; conditions: 24 hr; for relative viability of BPLER and HMLER cells: CellTiterGlo (FIG. 14); for sensitivity of BPLER relative to HMLER cells (viability): increasing doses
BPE cells = conditions: at the indicated dose
[2] = tested on: BPE, HMLER and BPLER cells; assay: Cell cycle distribution (propidium iodide DNA staining); conditions: BPE, HMLER and BPLER, 24 hours
BPLER cells [3] = assay: Apoptosis (Annexin V/PI flow cytometry, caspase 3 and PARP cleavage immunoblot); assay type: cell-based, human; conditions: 24 hours
Experimental: BPLER were used as control. […] The percentage of double-positive cells is indicated.
To further define factors underlying such properties of BPLER cells, we first determined the molecular mechanism by which proteasome inhibition affects the growth of these cells.
Immunoblot was performed as described^41. Primary antibodies were as follows: cleaved Caspase 3 (Cell Signaling, rabbit polyclonal, 1:1000), PARP1 (Santa Cruz, rabbit polyclonal, 1:500), MCL1 (Cell Signaling, Rabbit polyclonal, 1:1000), Bim (Santa Cruz, rabbit polyclonal, 1:500), Bik (Cell Signaling, rabbit polyclonal, 1:1000), Puma (Cell Signaling, rabbit polyclonal, 1:1000), Noxa (Calbiochem, mouse monoclonal, 1:500), Bid (Santa Cruz, rabbit polyclonal, 1:500), Bad (Santa Cruz, rabbit polyclonal, 1:500). Antibodies were diluted in 5% milk in TBS-T and incubated O.N. at 4° C. Secondary mouse and rabbit HRP-conjugated antibodies were from Amersham. Protein signal was detected using the ECL Plus kit (Amersham). For flow cytometry, cells were stained as previously described^33, using the following fluorescent-conjugated antibodies: CD44 (BD Biosciences), CD24 (BD Biosciences), CD326 (ESA, Biolegend), Annexin V (Invitrogen). For immunofluorescence microscopy, cells were fixed in 2% PFA for 10 min, permeabilized with 1% Triton X in PBS for 5 min, and incubated with primary antibodies in 0.5% Triton X, 1% FBS in PBS for 30 min at RT. Antibodies were: CK18 (Santa Cruz, mouse monoclonal, 1:100) and CK14 (Millipore, mouse monoclonal, 1:100). After washing the cells were stained sequentially with AlexaFluor647-conjugated secondary antibody (Invitrogen, 1:200) and DAPI (Sigma, 1:5000). For immunohistochemistry, BPLER tumor sections were prepared from paraffin-embedded tissues, deparaffinized and treated with 10% citrate buffer for 15 min. Staining was performed using a BIOGENEX IHC DAB kit (Biogenex) following the manufacturer's protocol. Primary antibodies were: CK14 (Millipore, mouse monoclonal, 1:100), CK5 (Millipore, mouse monoclonal, 1:100), HH3 (Cell Signaling, rabbit polyclonal, 1:100), ER (Abcam, mouse monoclonal, 1:100), Vimentin (Invitrogen, mouse monoclonal 1:100), Ki67 (Millipore, mouse monoclonal, 1:100).

HMLER cells = assay: Genome-wide siRNA lethality screen (primary screen), CellTiterGlo viability; assay type: cell-based, human; conditions: siRNA pool against the gene
BPLER cells [4] = assay: as above; assay type: cell-based, human
BPLER cells [5] = assay: Secondary (cherry-pick) screen with the 4 individual siRNAs of each pool

In the case of `NC(N)=NOCC[C@H](N)C(=O)O` [L-cavananine], the “relative viability of BPLER and HMLER cells” value (“relative viability” below) (BPLER cells [1]) is reported as “not active”.

In the case of `COc1ccc([C@@H]2CC(=O)c3c(O)cc(O)cc3O2)cc1O` [Hesperetin], the “relative viability” value (BPLER cells [1]) is reported as “not active”.

In the case of `O=C(CCCCCCC(=O)Nc1ccccc1)NO` [Vorinostat, N′-hydroxy-N-phenyl-octanediamide], the BPE viability (BPE cells) is reported as “no effect on BPE viability” and the “sensitivity of BPLER relative to HMLER cells (viability)” value (BPLER cells [1]) is reported as “selectively lethal for BPLER compared to HMLER”.

For `CC(=O)N(O)CCCCCNC(=O)CCC(=O)N(O)CCCCCNC(=O)CCC(=O)N(O)CCCCCN` [Deferoxamine], the “relative viability” value (BPLER cells [1]) was “not active”.

For `COc1ccc2cc(CCC(C)=O)ccc2c1` [Nabumetone], the “relative viability” value (BPLER cells [1]) was “not active”.

In the case of `COc1cccc2c1C(=O)c1c(O)c3c(c(O)c1C2=O)C[C@@](O)(C(=O)CO)C[C@@H]3O[C@H]1C[C@H](N)[C@H](O)[C@H](C)O1` [doxorubicin], the “sensitivity of BPLER relative to HMLER cells (viability)” value (BPLER cells [1]) is reported as “responded similarly”.

For `COC(=O)Nc1nc2ccc(C(=O)c3cccs3)cc2[nH]1` [nocodazole], the mitotic arrest [2] was “underwent mitotic arrest” and the “activation of apoptosis by mitotic arrest” value (BPLER cells [3]) was “sufficient to activate apoptosis in BPLER cells”.

With `O=C(O)C(=O)CBr` [BRPA, 3-bromo-pyruvic acid] the “sensitivity of BPLER relative to HMLER cells (viability)” value (BPLER cells [1]) was “more sensitive”.

B1: TMED3 (nucleic acid, listed as Homo sapiens)
DNA: ATCCCCTTACATCCTCCTAGGACCCGGTCGGTAGTCGTCGCCCCAGCCCGCCGGGGGCGCAGCGCCCGAGCCGCGGCCCTCGAGACGGGACCGAGAGCATCATGGGCAGCACTGTCCCGCGCTCCGCCTCCGTGCTGCTTCTGCTGCTGCTCCTGCGCCGGGCCGAGCAGCCCTGCGGGGCCGAGCTCACCTTCGAGCTGCCGGACAACGCCAAGCAGTGCTTCCACGAGGAGGTGGAGCAGGGCGTGAAGTTCTCCCTGGATTACCAGGTCATCACTGGAGGCCACTACGATGTTGACTGCTATGTAGAGGACCCCCAGGGGAACACCATCTACAGAGAAACGAAGAAGCAGTACGACAGCTTCACGTACCGGGCTGAAGTCAAGGGCGTTTATCAGTTTTGCTTCAGTAATGAGTTTTCCACCTTCTCTCACAAGACCGTCTACTTTGACTTTCAAGTGGGCGATGAGCCTCCCATTCTCCCAGACATGGGGAACAGGGTCACAGCTCTCACCCAGATGGAGTCCGCCTGCGTGACCATCCATGAGGCTCTGAAAACGGTGATTGACTCCCAGACGCATTACCGGCTGCGGGAGGCCCAGGACCGGGCCCGAGCGGAAGACCTTAATAGCCGAGTCTCTTACTGGTCTGTTGGCGAGACGATTGCCCTGTTCGTGGTCAGCTTCAGTCAGGTGCTACTGTTGAAAAGCTTCTTCACAGAAAAACGACCCATCAGCAGGGCAGTCCACTCCTAGCCCCGGCATCCTGCTCTAGGGCCCCTCATGCCCCAGGCTGGAGCAGCTCTCCTAGGTCACAGCCTGCTGGGCTGGGTCGCGTAGCCCAGGGTGGAGGCAGAACGATGCTGCTGTGGTAGCCCTTTGCCTTTCATGCCCATGCTTGATTCTTGCACCTCAGCAGCTGAAGGTCTCAGAGACCAGTAATCAGAAGGCATCCGACTGCATTAAGTGTGCAGCGCTGAAAAGACATTTACAACTAGGCCAGGGATTAGCCACTGTGGGAGGGTGGACAGGCAATGGTTCAGTGGCCTGGCTGTTGGCAGGAACTCCAAGTGCCCAGGCCTCTTGGGCAGCTTAGGGCCCTGCCTCTGTTTCATGATGCATGGGTCATTTGTCTTGGGTGTCCTATCCCATATGGAGAAGAAAGGGGCTCTAAGTTCTGGCTCTTCTTTCTTTGGGGTTCTCTGTACCTGAGGAAACCAGGCCCTGGGTGACTTTGCAGATCTGCTCACCCTCGGTGAGCAACAGTGTCAGCCATGCAAGCAGGACAGAATGGTGACTGGGTGCCCTTGGTGAGCTGTGTATTTCCTAGGAGGTAGAAAACTGTGGGAAACTGTGGCTAATAAAAACTAAGTGTGAGCGTCCTGGAGAAAAAAAAAAAAAAAAAAAAAAAAAAAAAAAAAAAAAAAAAAAAAAAA
With B1 the MAD_HMLER (HMLER cells; primary screen, HMLER cells, MAD score) was −1.28, the Fold_HMLER (HMLER cells; primary screen, HMLER cells, fold viability) was 0.80 and the “MAD HMLER” value (HMLER cells; MAD score of viability in HMLER cells) was −1.28. For the same molecule, the “Fold HMLER” value (HMLER cells; fold viability in HMLER cells) was 0.80, the “Ratio BPLER/HMLER” value (BPLER cells [4]; ratio of Fold_BPLER to Fold_HMLER) was 0.68 and the “Ratio BPLER/HMLER” value (BPLER cells [4]; ratio of fold viability BPLER/HMLER) was 0.68. The “MAD BPLER” value (BPLER cells [4]; siRNA pool against the gene, MAD score of viability in BPLER cells) was −2.93, the “Fold BPLER” value (BPLER cells [4]; siRNA pool against the gene, fold viability in BPLER cells) was 0.537 and the Cherry_Score (BPLER cells [5]; secondary cherry-pick screen, 4 individual siRNAs of each pool) was 2. For the same molecule, the “Cherry Score” value (BPLER cells [5]; secondary screen with the 4 individual siRNAs of each pool) was 2.
